# From US10537610B1, “Peptide for inhibition of cancer” (priority 2018, dated 2020)
# What was measured:
# JAM-A (CD321) = test: Flow cytometry of JAM-A (CD321) on the surface of HMEC-1 cells; assay type: cell-based, human; details: Tβ4 200 nM, TGF-β1 10 ng/ml or TNF-α 10 ng/mL, 24 hours
# Source text: For the detection of JAM-A surface expression the cells were labeled with FITC anti-human CD321 (F11R) Mouse IgG1 Antibody (BioLegend, San Diego, Calif., USA) or with the FITC Mouse IgG1 Isotype Control Antibody (BioLegend) for the negative control. Labeled cells were washed to remove unbound antibodies, harvested with ice cold EDTA/PBS, fixed with BD CellFix (Becton Dickinson. Franklin Lakes, N.J., USA) and subsequently analyzed by FACS Canto II flow cytometer (Becton Dickinson). Upon excitation at 488 nm with an argon laser the emission of the fluorescence was recorded through selective band pass filter at 517 nm. Data were recorded with DIVA software, version 6.0 (Becton Dickinson) and subsequently analyzed using FCSalyzer software, version 0.9.14-alpha (https://sourceforge.net/projects/fcsalyzer/).
# JAM-A mRNA = test: RT-PCR of JAM-A mRNA in HMEC-1 cells; assay type: cell-based, human; details: Tβ4 200 nM or TGF-β1 10 ng/mL
# soluble JAM-A = test: ELISA of JAM-A antigen in plasma, murine 4T1 breast cancer model; assay type: in vivo, mouse; details: 4T1 tumor-bearing BALB/c mice and control littermates; Tβ4 15 μg/kg or TGF-β1 5 μg/kg i.p., 21 days
# Method: All in vivo experiments were carried on female BALB/c mice aged 8 to 12 weeks purchased from Animal House of Institute of Biology, University of Bialystok (Bialystok, Poland). The mice were housed under standard conditions at the Animal House of the Medical University of Lodz (Lodz, Poland). All animal procedures and protocols were conducted in accordance with the Guide for the Care and Use of Laboratory Animals of the National Animal Care Committee and were approved by Local Ethical Committee for Animal Research in Lodz (license number 9/LB51/2017 from Jun. 2, 2017). All efforts were made to minimize animal suffering.
# Murine 4T1 cells were purchased from the American Type Culture Collection (ATCC, Manassas, Va., USA). The cells were maintained in RPMI-1640 (ATCC) with 10/o fetal bovine serum (FBS) and cultured in tissue culture flasks to 80% confluence. […]
# The unbound biotinylated antibody was washed away and HRP-conjugated streptavidin was added to the wells. […] Regarding the both protocols, the enzyme-substrate (HRP-TMB) reaction was terminated by the addition of a sulfuric acid solution and the color change was measured spectrophotometrically at a wavelenght of 450 nm using the Wallac 1420 VICTOR2 Multilabel Counter (PerkinElmer). The concentration of target antigen in the samples was determined by comparing the optical density of the samples to the standard curve.
# JAM-A = test: Western blot of JAM-A protein in HMEC-1 cells; assay type: cell-based, human; details: Tβ4 200 nM or TGF-β1 10 ng/mL, 24-hours incubation
# Method: The cells were lysed with lysis buffer (1% Triton X-100 and 0.1% SDS in PBS) supplemented with Halt Protease Inhibitor Cocktail (Thermo Scientific, Waltham, Mass., USA). For the equalization between the samples before the semi-quantitative analyses the protein content of lysates was determined with the BCA Protein Assay Kit according to the manufacturer's protocol (Thermo Scientific). Cell lysate aliquots at a protein content of 50 μg per sample were boiled with 5× concentrated loading buffer (final concentrations: 50 mM Tris-HCl, pH 6.8, 8% glycerol, 2% SDS, 5% β-mercaptoethanol, 0.002% bromophenol blue), separated under reducing conditions on 4-20% gradient SDS-PAGE gels (Bio-Rad) and electroblotted (120 min, 200 mA, 4° C.) onto polyvinylidene difluoride (PVDF) membranes (Bio-Rad). The membranes were washed with Tris-buffered saline (TBS) and blocked for 2 hours with TBS containing 5% nonfat dry milk at room temperature. Then, the membranes were incubated overnight at 4° C. with an appropriate amount of primary antibody diluted in TBS containing 0.05% Tween 20 (TBST). The following primary antibodies were used: monoclonal rabbit anti-JAM-A (Abcam, Cambridge, UK) at a dilution of 1:500 and monoclonal mouse anti-GAPDH (R&D Systems, Minneapolis, Minn., USA) at a dilution of 1:1000. The membranes were washed several times with TBST and incubated for 1 hour at room temperature with the corresponding polyclonal anti-rabbit and anti-mouse HRP-conjugated secondary antibodies (Santa Cruz Biotechnology, Dallas, Tex., USA) at a 1:5000 dilution in TBST. Following the subsequent washes with TBST the membranes were further processed for chemiluminescent detection using Westar TiC ECL Substrate (Cyanagen, Bologna, Italy) and the images were documented by ChemiDoc MP Imager (Bio-Rad).
substance,measurement,setting,value
Transforming growth factor-β1 [TGF-β1],JAM-A (CD321) level on the cell surface,JAM-A (CD321),slightly decreased JAM-A level on the membrane of HMEC-1 cells
same,JAM-A expression on mRNA level,JAM-A mRNA,no observed changes of JAM-A expression on mRNA level
same,JAM-A level in plasma,soluble JAM-A,decreased the JAM-A plasma level
same,level of JAM-A protein,JAM-A,evidently reduced the level of JAM-A protein
tumor necrosis factor-α [TNF-α],JAM-A (CD321) level on the cell surface,JAM-A (CD321),triggered a minor increase of CD321 expression
